Data set [1] deals with E. multilocularis metacestode vesicles. Nature of the data set: Metacestode vesicle viability assay (ATP, CellTiter-Glo). In kind it is cell-based, Echinococcus multilocularis. To be noted: Echinococcus multilocularis, 288 h; for viability at 10 µM: 12 days, read-out: Viability d12 (relative viability). The protocol:
Viability was assessed after 12 days using the same metacestode vesicles as for the PGI release assay. Triton X-100 was added to each well to a final concentration of 0.1 %. Subsequently the metacestode vesicles were broken mechanically and 50 μL of the supernatant was mixed with 50 μL of CellTiter-Glo® buffer (Promega, Dübendorf, Switzerland). Measurements were performed on a HIDEX Sense microplate reader.

The next data set concerns mice. More on the design: method as in Almahariq et al., 2013; Maeda et al., 2020. The note with it: ref Almahariq et al., 2013, Maeda et al., 2020, cited from earlier work.
Data set [2] has as its system E. multilocularis metacestode vesicles. Nature of the data set: Phosphoglucose isomerase (PGI) release assay (damage-marker release) on metacestode vesicles. In kind it is cell-based, Echinococcus multilocularis. The note with it: for PGI d5 (relative PGI release) / PGI d12 (relative PGI release): 10 μM; for PGI d5 (relative PGI release): 5 days; for PGI d12 (relative PGI release): 12 days.

[3] abbreviates: confirmation screen, triplicates, mean.
[4] abbreviates: overview screen, singlets, relative to 0.1 % Triton X-100, DMSO subtracted.

Molecules are shown by their SMILES. Where two headings read alike, the source gives them in different places.

Broadly, the viability is a read-out of living cells in per cent, often relative to untreated cells. Broadly, the IC50 is the concentration at which inhibition is half-maximal. Read a low IC50 as inhibition by little substance. For `CC(C)(C)c1cc(C(=O)/C(C#N)=N/Nc2cccc(Cl)c2)no1` [ESI-09], the viability at 10 µM amounted to 10.7% in data set [1] (setting [3]) and 7.77% in data set [1] (overview screen, singlets, relative to DMSO control). The IC50 came out at 2.09 ± 0.56 µM in data set [1] (12 days incubation, mean ± SD of three independent experiments) and 6.06 ± 3.18 µM in data set [2] (Echinococcus multilocularis, 288 h, 12 days incubation, mean ± SD of three independent experiments). The “tolerability in mice (in words)” value with mice (daily 10 mg/kg intraperitoneal for 21 days) and in the data set on mice (daily 50 mg/kg oral gavage up to 26 days) was “well-tolerated” throughout. Besides, the “PGI d5 (relative PGI release)” value in data set [2] (setting [3]) is recorded as 6.08%; in data set [2] (setting [4]) it was 33.0513%. Also, the figures for the “PGI d12 (relative PGI release)” value in data set [2] (setting [3]) and in data set [2] (setting [4]) were 38.44% and 64.0941%, respectively. In data set [2] (microscopy pictures, 12 days incubation), the “detachment of the GL from the laminated layer, visible from concentration” value was at least 13.3 µM.

The values are drawn from article PMC12410356 (International Journal for Parasitology: Drugs and Drug …, 2025).
